Values after ≈ are worked out from the molar mass of the structure shown. Like-named read-outs stand apart in the source and are kept apart here.

The values below come from patent US20250236607A1, “CYCLIN-DEPENDENT KINASE 9 (CDK9) DEGRADERS AND METHODS OF USING THEREOF” (OHIO STATE INNOVATION FOUNDATION, priority 2022, published 2025).

Data set [1] in a line: Chromatographic log D determination (log k′80). It is filed as physicochemical. The note with it: chromatographic log D, PLRP-S column, pH 7.72. As for the experimental part: Chromatographic Log D Determination. Test samples were prepared from 10 mM stock solutions in DMSO, to make 122 μM solutions in acetonitrile. Retention times were determined on a Shimadzu High Performance Liquid Chromatography (HPLC) system with Agilent PLRP-S column, 100 Å, 5 um particle size, 50×4.6 mm (part no.: PL1512-1500) with 1 mL/min flow rate. A 65 mM aqueous solution of ammonium acetate was prepared in water and diluted with acetonitrile to give 0.1% ammonium acetate 20:80 acetonitrile solution with pH 7.72. Eluents were detected with UV spectrophotometry at 337 nm. As a standard set, the retention times of β-estradiol, nifedipine, quinoline, phenol and 2-nitrophenol were determined (log k′80) and the dead time was extrapolated based on the reported log k′80 values originally reported by Caron et. al (log k′80*). The average value of the dead time for the standard set was 0.3001 minutes. Therefore, for consistency, 0.3 minutes was used as the dead time for all test samples. Experiments were performed in triplicate with a maximum percent standard deviation of 6.85%.

The target of data set [2] is T1, CDK9 (Homo sapiens, UniProt P50750+Q96SW2).
T1 construct: endogenous in cells
Description: CDK9 degradation potency (DC50) of VIP152-based degraders. The class given is cell-based. The following applies: VIP152-based series. The source says:
(§1) Through amide coupling using I-ethyl-3-carbodiimide hydrochloride (EDC.HCl), the alkynyl derivatives of 4.16, 4.29 and 4.30 were synthesized. Using these VIP152-derivatives, degraders 4.31, 4.33 and 4.34 were synthesized using click chemistry. Degrader 4.32 was also synthesized using amide coupling conditions with (1-[Bis([…])methylene]-1H-1,2,3-triazolo[4,5-b]pyridinium 3-oxide hexafluorophosphate (HATU) and the carboxylic acid 4.28. Scheme 7 illustrates the synthesis of this initial series. The series was evaluated for cytotoxicity against MOLM13 cells (IC50) and for their CDK9 degradation potency (DC50). The results are provided in Table 3.

Data set [3] in a line: Kinetic solubility assay. The note with it: kinetic solubility, PBS pH 7.4.
The test system of data set [4] is MOLM13 cells. Put plainly: Cytotoxicity against MOLM13 cells. The class given is cell-based. The note with it: MOLM13 cells, read-out: IC50.
Source text: as §1

T1 sequence (P50750 whole entry): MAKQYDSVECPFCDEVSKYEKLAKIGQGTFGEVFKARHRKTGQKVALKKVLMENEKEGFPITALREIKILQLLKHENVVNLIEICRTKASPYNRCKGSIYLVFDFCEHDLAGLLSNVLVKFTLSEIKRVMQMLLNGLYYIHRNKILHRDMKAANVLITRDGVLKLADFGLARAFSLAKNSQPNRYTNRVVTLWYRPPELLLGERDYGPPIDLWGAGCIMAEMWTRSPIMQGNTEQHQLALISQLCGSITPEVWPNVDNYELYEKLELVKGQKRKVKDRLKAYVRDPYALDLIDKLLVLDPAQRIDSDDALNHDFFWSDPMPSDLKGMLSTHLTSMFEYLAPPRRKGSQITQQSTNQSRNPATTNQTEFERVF
T1 sequence (O60563 whole entry partner): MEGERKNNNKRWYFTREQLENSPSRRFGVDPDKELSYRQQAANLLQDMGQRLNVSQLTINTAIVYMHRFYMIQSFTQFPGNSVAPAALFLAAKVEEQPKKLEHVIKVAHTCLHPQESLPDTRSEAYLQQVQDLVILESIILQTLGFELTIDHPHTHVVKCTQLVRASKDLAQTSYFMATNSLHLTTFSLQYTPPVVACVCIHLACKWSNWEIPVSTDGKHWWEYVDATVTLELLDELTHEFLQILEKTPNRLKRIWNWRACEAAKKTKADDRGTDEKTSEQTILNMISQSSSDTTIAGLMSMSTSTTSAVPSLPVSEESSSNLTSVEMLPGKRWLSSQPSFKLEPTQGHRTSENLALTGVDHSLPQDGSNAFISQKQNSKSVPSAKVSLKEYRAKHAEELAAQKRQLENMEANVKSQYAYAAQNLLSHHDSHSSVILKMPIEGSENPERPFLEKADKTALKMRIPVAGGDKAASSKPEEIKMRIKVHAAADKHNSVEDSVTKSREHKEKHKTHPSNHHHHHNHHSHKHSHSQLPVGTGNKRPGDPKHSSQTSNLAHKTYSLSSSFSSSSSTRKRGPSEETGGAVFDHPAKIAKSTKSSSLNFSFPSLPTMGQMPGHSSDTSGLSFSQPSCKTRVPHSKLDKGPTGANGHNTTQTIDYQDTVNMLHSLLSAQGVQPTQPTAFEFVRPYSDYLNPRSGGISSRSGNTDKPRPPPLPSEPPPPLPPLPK
T1 sequence (Q96SW2 whole entry): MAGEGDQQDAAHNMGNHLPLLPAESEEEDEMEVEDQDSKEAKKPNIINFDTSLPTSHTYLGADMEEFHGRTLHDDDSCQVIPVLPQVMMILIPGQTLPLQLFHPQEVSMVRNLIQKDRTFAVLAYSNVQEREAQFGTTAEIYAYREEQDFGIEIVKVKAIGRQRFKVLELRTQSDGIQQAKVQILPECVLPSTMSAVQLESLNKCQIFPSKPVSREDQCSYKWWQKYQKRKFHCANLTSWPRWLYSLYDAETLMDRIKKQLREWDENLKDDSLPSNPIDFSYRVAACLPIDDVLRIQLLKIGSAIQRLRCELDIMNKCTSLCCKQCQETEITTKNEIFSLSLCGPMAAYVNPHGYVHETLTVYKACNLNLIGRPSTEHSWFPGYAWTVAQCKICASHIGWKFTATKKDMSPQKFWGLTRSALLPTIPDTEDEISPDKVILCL
T1 sequence (Q16531 whole entry partner): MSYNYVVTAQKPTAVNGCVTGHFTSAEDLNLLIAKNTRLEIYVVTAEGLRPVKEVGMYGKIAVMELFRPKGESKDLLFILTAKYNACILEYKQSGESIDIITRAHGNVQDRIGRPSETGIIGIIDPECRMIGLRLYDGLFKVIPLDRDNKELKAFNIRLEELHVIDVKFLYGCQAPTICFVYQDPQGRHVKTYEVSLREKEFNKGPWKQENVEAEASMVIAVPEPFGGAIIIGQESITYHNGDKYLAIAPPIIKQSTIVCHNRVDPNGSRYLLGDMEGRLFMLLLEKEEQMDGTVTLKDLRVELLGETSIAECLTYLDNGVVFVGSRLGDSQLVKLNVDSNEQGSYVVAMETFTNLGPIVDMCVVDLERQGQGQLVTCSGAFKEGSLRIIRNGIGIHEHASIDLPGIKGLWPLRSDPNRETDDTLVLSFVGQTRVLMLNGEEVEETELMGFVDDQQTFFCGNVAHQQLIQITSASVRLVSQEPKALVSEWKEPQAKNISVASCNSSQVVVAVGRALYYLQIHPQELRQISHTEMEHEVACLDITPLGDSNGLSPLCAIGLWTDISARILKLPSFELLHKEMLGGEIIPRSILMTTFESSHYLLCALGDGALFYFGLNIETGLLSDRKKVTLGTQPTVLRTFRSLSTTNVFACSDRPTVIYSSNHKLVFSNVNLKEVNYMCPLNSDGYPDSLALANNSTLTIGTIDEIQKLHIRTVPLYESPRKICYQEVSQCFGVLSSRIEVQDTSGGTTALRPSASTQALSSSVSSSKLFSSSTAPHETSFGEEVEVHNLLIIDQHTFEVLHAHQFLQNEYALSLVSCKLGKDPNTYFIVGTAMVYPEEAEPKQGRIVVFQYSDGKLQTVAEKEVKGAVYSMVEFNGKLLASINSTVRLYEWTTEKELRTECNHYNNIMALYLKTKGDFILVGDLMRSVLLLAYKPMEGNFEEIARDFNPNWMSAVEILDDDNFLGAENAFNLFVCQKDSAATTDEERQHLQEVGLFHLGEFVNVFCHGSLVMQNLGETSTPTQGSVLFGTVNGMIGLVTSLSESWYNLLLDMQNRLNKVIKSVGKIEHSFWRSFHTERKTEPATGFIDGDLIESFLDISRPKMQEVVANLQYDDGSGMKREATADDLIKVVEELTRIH

By DC50 is commonly meant the concentration at which degradation of the target reaches its halfway point. In general, Solubility refers to the concentration that dissolves in the medium under given conditions. As a reminder, the IC50 is the midpoint of a concentration-inhibition curve. Turning to `COc1cc(F)ccc1-c1cc(Nc2cc(CS(C)(=O)=NC(=O)C3CCCN(Cc4cn(CC(=O)N5CCN(CC#Cc6cccc7c6C(=O)N(C6CCC(=O)NC6=O)C7=O)CC5)nn4)C3)ccn2)ncc1F` (centres unmarked) [Compound 4.64, 1-((1-(2-(4-(3-(2-(2,6-dioxopiperidin-3-yl)-1,3-dioxoisoindolin-4-yl)prop-2-yl-1-yl)piperazin-1-yl)-2-oxoethyl)-1H-1,2,3-triazol-4-yl)methyl)-N-(((2-((5-fluoro-4-(4-fluoro-2-methoxyphenyl)pyridin-2-yl)amino)pyridin-4-yl)methyl)(methyl)(oxo)-16-sulfaneylidene)piperidine-3-carboxamide], in data set [1], the “logk′80” value came to 0.14. In data set [2], this compound showed a DC50 of 0.78 µM. For the same compound, the “Solubility” value in data set [3] was 33.0 µM (≈ 33.6 µg/mL). Besides, the IC50 in data set [4] (cytotoxicity) is 0.85 µM.

As for “1-((1-(1-((2-(2,6-dioxopiperidin-3-yl)-1,3-dioxoisoindolin-4-yl)glycyl)azetidin-3-yl)-1H-1,2, 3-triazol-4-yl)methyl)-N-(((2-((5-fluoro˜4-(4-fluoro-2-methoxyphenyl)pyridin-2-yl)amino)pyridin-4-yl)methyl)(methyl)(oxo)-16-sulfaneylidene)piperidine-3-carboxamide [Compound 4.63]”, the “logk′80” value in data set [1] amounted to 0.19. The same compound returned a DC50 in data set [2] of 0.46 µM. In addition, the “Solubility” value in data set [3] worked out at 10.8 µM. Also, in data set [4] (cytotoxicity), the IC50 was found to be 0.55 µM.

The solubility is how much of the substance goes into solution per volume. A lower solubility goes with a poorly soluble substance. Consider `COc1cc(F)ccc1-c1cc(Nc2cc(CS(C)(=O)=NC(=O)CN3CCN(Cc4cn(CCCOc5cccc6c5C(=O)N(C5CCC(=O)NC5=O)C6=O)nn4)CC3)ccn2)ncc1F` (centres unmarked) [Compound 4.39, 2-(4-((1-(3-((2-(2,6-dioxopiperidin-3-yl)-1,3-dioxoisoindolin-4-yl)oxy)propyl)-1H-1,2,3-triazol-4-yl)methyl)piperazin-1-yl)-N-(((2-((5-fluoro-4-(4-fluoro-2-methoxyphenyl)pyridin-2-yl)amino)pyridin-4-yl)methyl)(methyl)(oxo)-16-sulfaneylidene)acetamide], for which the “logk′80” value in data set [1] worked out at 0.10. The DC50 in data set [2] was determined as 0.64 µM. For the same compound, in data set [3] (phosphate buffered saline, pH 7.4, aqueous buffer, kinetic from dmso stock, Solubility (μM)), the solubility at 1.5 h worked out at 26.5 µM (≈ 24.5 µg/mL). For the same compound, the IC50 in data set [4] (Homo sapiens, MOLM-13, cytotoxicity) was determined as 0.83 µM.

In the case of `COc1cc(F)ccc1-c1cc(Nc2cc(CS(C)(=O)=NC(=O)CN3CCC(c4cn(CC5CCN(c6cccc7c6C(=O)N(C6CCC(=O)NC6=O)C7=O)CC5)nn4)CC3)ccn2)ncc1F` (centres unmarked) [Compound 4.76, 2-{[4-[1-({1-[2-(2,6-dioxopiperidin-3-yl)-1,3-dioxo-2,3-dihydro-1H-isoindol-4-yl]piperidin-4-yl}methyl)-1H-1,2,3-triazol-4-yl]piperidin-1-yl}-N-{[2-{[5-fluoro-4-(4-fluoro-2-methoxyphenyl)pyridin-2-yl]amino}pyridin-4-yl)methyl](methyl)oxoλ^6-sulfanylidene}acetamide], in data set [1], the “logk′80” value was 0.19. This compound displayed a DC50 in data set [2] of 0.24 µM. For the same compound, the “Solubility” value in data set [3] came out at 4.7 µM (≈ 4.47 µg/mL). For the same compound, the IC50 in data set [4] (cytotoxicity) was determined as 0.3 µM.

For the compound `COc1cc(F)ccc1-c1cc(Nc2cc(CS(C)(=O)=NC(=O)CN3CCC(c4cn(C5CN(C(=O)CNc6cccc7c6C(=O)N(C6CCC(=O)NC6=O)C7=O)C5)nn4)CC3)ccn2)ncc1F` (centres unmarked) [Compound 4.59, 2-(4-(1-(1-((2-(2,6-dioxopiperidin-3-yl)-1,3-dioxoisoindolin-4-yl)glycyl)azetidin-3-yl)-1H-1,2,3-triazol-4-yl)piperidin-1-yl)-N-(((2-((5-fluoro-4-(4-fluoro-2-methoxyphenyl)pyridin-2-yl)amino)pyridin-4-yl)methyl)(methyl)(oxo)-16-sulfaneylidene)acetamide], the “logk′80” value in data set [1] is 0.09. The same compound came in with a DC50 in data set [2] of 0.11 µM. In data set [3], the “Solubility” value came to 5.0 µM (≈ 4.83 µg/mL). In addition, the half-inhibitory concentration (IC50) in data set [4] (cytotoxicity) was 0.21 µM.
